Data from article PMC5012888, “Structure-based identification and characterisation of structurally novel human P2X7 receptor antagonists” (Biochemical Pharmacology, 2016).

How the values were obtained:
hP2X7R [1] = target: T1, hP2X7R (Homo sapiens, UniProt Q99572); settings: known hP2X7R antagonists; cited from earlier work
T1 construct: expressed in transfected cells
T1 sequence (Q99572 1-595): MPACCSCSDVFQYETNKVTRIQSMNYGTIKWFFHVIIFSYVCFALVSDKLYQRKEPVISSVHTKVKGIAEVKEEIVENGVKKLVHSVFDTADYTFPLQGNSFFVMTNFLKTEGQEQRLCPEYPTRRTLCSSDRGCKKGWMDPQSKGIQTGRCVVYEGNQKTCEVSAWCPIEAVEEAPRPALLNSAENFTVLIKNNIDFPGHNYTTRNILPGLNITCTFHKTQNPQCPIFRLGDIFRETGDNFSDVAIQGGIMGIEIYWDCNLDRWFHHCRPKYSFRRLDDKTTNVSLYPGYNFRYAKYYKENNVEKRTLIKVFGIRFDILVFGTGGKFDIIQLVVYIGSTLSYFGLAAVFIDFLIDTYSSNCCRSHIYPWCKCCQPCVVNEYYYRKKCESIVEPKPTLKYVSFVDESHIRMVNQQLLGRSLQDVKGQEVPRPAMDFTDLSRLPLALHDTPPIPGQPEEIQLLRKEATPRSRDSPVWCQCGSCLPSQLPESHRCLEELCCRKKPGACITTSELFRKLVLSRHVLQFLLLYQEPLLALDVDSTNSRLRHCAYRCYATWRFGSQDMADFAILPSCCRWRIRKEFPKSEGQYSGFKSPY

hP2X7R [2] = target: T1, hP2X7R; assay: BzATP-induced Ca2+ responses in HEK293 cells expressing hP2X7R (FlexStation, Fura-2); format: cell-based; settings: 300 μM BzATP
From the text: (§1) Human embryonic kidney (HEK) 293 cells stably expressing C-terminally EE-tagged human or rat P2X7R [42], [34], human P2X4R [15] and rat P2X3R [28] were generated in previous studies. A stable HEK293 cell line expressing C-terminally His-tagged human P2X7R was generated in this study and there was no difference in the experimental results using EE-tagged and His-tagged human P2X7R. These cells were maintained in Dulbecco’s Modified Eagle Medium (Life Technologies) supplemented with 10% foetal bovine serum and […] G418 in a tissue culture incubator at 37°C and 5% CO2 under humidified conditions. Cells were cultured in T25 flasks and split (every 3–4 days) once confluent.
FlexStation II and III (Molecular Devices) were used to measure intracellular Ca^2+ concentrations ([Ca^2+]i). Human or rat P2X7R-expressing HEK293 cells were plated in poly-D-lysine-coated 96-well plates (Molecular Devices) with 50,000 cells per well 24 h prior to use. […] Cells were excited at 340 nm and 380 nm alternatively and the emission at 510 nm recorded using a FlexStation. The ratio of fluorescence intensity (F340/F380) was used to indicate the [Ca^2+]i. The basal [Ca^2+]i was recorded for 60 s prior to the exposure to agonist and recording was continued for a further 120 s. […] The maximal changes in F340/F380 (ΔF340/380) were used for quantitative analysis. […]

rP2X7R = target: T2, rP2X7R (Rattus norvegicus, UniProt Q64663); assay: BzATP-induced Ca2+ responses in HEK293 cells expressing rP2X7R (FlexStation, Fura-2); format: cell-based; settings: 300 μM BzATP
T2 construct: expressed in transfected cells
T2 sequence (Q64663 1-595): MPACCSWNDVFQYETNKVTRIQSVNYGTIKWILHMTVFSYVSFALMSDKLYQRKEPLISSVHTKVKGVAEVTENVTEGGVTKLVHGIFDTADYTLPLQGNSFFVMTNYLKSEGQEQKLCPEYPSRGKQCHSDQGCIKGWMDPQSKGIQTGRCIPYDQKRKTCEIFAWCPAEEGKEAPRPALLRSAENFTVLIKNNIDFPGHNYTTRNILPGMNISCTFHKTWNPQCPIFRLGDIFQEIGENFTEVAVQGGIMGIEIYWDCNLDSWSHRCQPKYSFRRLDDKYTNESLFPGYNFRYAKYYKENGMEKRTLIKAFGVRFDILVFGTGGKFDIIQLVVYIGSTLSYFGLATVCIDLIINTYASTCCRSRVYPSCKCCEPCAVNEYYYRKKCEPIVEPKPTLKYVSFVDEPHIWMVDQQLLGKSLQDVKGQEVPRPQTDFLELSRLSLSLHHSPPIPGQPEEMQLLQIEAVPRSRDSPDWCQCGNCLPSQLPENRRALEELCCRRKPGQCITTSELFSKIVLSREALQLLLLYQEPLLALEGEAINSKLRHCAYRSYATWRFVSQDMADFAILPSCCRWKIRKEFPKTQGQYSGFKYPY
From the text: as §1
FlexStation II and III (Molecular Devices) were used to measure intracellular Ca^2+ concentrations ([Ca^2+]i). Human or rat P2X7R-expressing HEK293 cells were plated in poly-D-lysine-coated 96-well plates (Molecular Devices) with 50,000 cells per well 24 h prior to use. […] Cells were excited at 340 nm and 380 nm alternatively and the emission at 510 nm recorded using a FlexStation. The ratio of fluorescence intensity (F340/F380) was used to indicate the [Ca^2+]i. The basal [Ca^2+]i was recorded for 60 s prior to the exposure to agonist and recording was continued for a further 120 s. […] The maximal changes in F340/F380 (ΔF340/380) were used for quantitative analysis.

Row | inhibition of BzATP-induced Ca^2+ responses (hP2X7R) (hP2X7R [2]; 200 nM AZ11645373 (Fig. 1 legend)) [%] | inhibition of BzATP-induced Ca^2+ responses (rP2X7R) (rP2X7R; 200 nM AZ11645373 (Fig. 1 legend), compared with BBG) | inhibition at 10 µM (hP2X7R [2]; HEK293, compound at 10 μM, read-out: inhibition of BzATP-induced Ca^2+ responses (hP2X7R)) [%] | inhibition of BzATP-induced Ca^2+ responses (rP2X7R) (rP2X7R; compound at 10 μM) | SMILES | predicted energy binding score (hP2X7R [1]) [kcal/mol]
1 | – | – | – | – | C[S+]([O-])c1ccc(-c2nc(-c3ccncc3)c(-c3ccc(F)cc3)[nH]2)cc1 (stereo not shown) [SB203580] | -8.75
2 | 81.9 ± 5 | far less effective | – | – | O=C1CSC(=O)N1C(CCc1ccncc1)COc1ccc(-c2cccc([N+](=O)[O-])c2)cc1 (stereo not shown) [AZ11645373] | -10.8
3 | – | – | 71.5 ± 5 | strongly inhibited | CCOc1ccc(Nc2ccc(/C(=C3C=C/C(=[N+](/CC)Cc4cccc(S(=O)(=O)[O-])c4)C=C/3C)c3ccc(N(CC)Cc4cccc(S(=O)(=O)O)c4)cc3C)cc2)cc1 [BBG, brilliant blue G] | –
4 | – | – | – | – | CN([C@@H](Cc1ccc(OS(=O)(=O)c2cccc3cnccc23)cc1)C(=O)N1CCN(c2ccccc2)CC1)S(=O)(=O)c1cccc2cnccc12 [KN-62] | -5.2
